This assay deals with T1, CueO (copper efflux oxidase) (Escherichia coli, UniProt P36649).
T1 sequence (P36649 29-516): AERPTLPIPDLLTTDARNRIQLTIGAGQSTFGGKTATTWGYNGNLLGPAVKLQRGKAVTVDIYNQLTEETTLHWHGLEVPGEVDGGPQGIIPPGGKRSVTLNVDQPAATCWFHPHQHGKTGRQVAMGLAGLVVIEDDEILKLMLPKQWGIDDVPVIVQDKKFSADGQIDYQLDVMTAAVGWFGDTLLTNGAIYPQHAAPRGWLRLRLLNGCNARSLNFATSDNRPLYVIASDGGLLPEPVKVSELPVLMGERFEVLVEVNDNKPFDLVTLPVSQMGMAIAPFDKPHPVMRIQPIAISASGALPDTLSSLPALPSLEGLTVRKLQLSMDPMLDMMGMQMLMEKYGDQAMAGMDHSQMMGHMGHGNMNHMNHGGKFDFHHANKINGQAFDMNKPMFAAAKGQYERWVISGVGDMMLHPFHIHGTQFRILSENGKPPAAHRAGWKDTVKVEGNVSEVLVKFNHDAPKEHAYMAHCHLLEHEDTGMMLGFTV
Particulars: immobilised on cysteamine-modified polycrystalline Au; O2-saturated phosphate buffer; 100-200 mM fluoride; direct electron transfer.

Take `F` [F−, sodium fluoride]: the “cyclic voltammetry and chronoamperometry of electrocatalytic O2 reduction” value is reported as “the current density decreases significantly after the addition of fluoride”.

The values above are taken from PMC6117412, “Comprehensive Study of the Enzymatic Catalysis of the Electrochemical Oxygen Reduction Reaction (ORR) by Immobilized Copper Efflux Oxidase (CueO) From Escherichia coli” (Frontiers in Chemistry, 2018).
